Tested on: c-Jun N-terminal kinase (JNK)
Test: Western blot of LPS-induced JNK phosphorylation in BV-2 cells
Assay type: cell-based, murine
Settings: 5–20 µM; LPS 30 min, similar pattern at 24 h
Experimental: BV-2 cells were seeded in a 6-well plate at a density of 6 × 10^5 cells/well and exposed to LPS (100 ng/mL) in the presence or absence of compound 3 for required time. After treatment, cells were collected and lysed in cell lysis buffer (50 mM Tris–HCl, pH 8.0, 0.1% SDS, 150 mM NaCl, 1% NP-40, 0.02% sodium azide, 0.5% sodium deoxycholate, 100 µg/mL PMSF, and […]) for 24 h at 4 °C. The protein content was measured using a Bradford assay. Equal amounts of protein (30 µg) were separated using SDS-PAGE and transferred to a nitrocellulose membrane. The membrane was blocked for 1 h with 5% skim milk in tris-buffered saline with Tween-20 (TBST) and then incubated for 12 h with primary antibodies against α-tubulin (Sigma-Aldrich Cat. no: T5168), iNOS (Bioscience Cat. no: 610333, COX-2 (Santa Cruz Cat. no: sc-1745), ERK (Cell Signaling Cat. no: 9107s), pERK (Cell Signaling Cat. no: 5013s), JNK (Cell Signaling Cat. no: 9252s), pJNK (Cell Signaling Cat. no: 4671s), p38 (Cell Signaling Cat. no: 8690s), and pP38 (Cell Signaling Cat. no: 9211s), followed by incubation for 1 h with horseradish peroxidase-conjugated secondary antibodies (Cell Signaling) at 15 °C. […]
Fig. 3 Effect of compound 3 on MAPK pathway in LPS-induced BV-2 cells. […] The phosphorylation of p38, JNK, and ERK was measured by western blotting (a–c). […]

Question: With COc1cc(/C=C/C=N/N=C/C=C/c2ccc(O)c(OC)c2)ccc1O [Compound 3, 4,4′-(1E,1′E,3E,3′E)-3,3′-(hydrazine-1,2-diylidene)bis(prop-1-ene-1-yl-3-ylidene)bis(2-methoxyphenol)] as the compound, how does the “LPS-induced phosphorylation of JNK” value read?
Answer: Its value is “significantly inhibited”.
